# Reference: PMC6544338, “Comparative biophysical characterization: A screening tool for acetylcholinesterase inhibitors” (PLoS ONE, 2019)
# Where a name gives a salt, the structure may show the parent alone. Read-outs that look alike come from different tables or passages of the source.
# Assays:
# [1] = target: T1, immobilized AChE (Electrophorus electricus, UniProt O42275); experiment: biochemical; assay type: binding; conditions: for Kd / Ka1 / Kd1: 25°C
# T1 construct: purchased Sigma (St. Louis, MO, USA)
# T1 sequence (O42275 24-633): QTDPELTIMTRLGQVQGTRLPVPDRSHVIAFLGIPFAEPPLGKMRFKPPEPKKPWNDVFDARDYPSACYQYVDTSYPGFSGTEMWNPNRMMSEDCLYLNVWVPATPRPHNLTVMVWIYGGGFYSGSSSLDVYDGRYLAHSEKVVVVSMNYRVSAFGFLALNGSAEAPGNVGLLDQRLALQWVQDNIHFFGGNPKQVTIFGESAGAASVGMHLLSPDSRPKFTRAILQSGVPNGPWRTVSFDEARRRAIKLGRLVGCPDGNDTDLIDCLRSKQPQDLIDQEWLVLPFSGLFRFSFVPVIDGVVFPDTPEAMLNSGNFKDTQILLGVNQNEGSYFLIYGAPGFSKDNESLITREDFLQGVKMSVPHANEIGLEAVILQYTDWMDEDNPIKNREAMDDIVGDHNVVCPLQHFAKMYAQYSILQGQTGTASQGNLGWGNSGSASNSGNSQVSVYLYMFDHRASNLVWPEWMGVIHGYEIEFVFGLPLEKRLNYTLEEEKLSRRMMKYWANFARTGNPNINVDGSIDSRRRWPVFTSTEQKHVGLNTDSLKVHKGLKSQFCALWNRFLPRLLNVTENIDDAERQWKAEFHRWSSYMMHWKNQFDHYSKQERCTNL
# Procedure: (§1) The protocol was followed with some modifications for enzyme immobilization, scouting and screening. SPR interactions were performed using a Biacore X100 optical biosensor (GE Healthcare Life Sciences, Bangalore, India) at 25°C. SPR analysis was carried out in PBS (200 mM, pH 7.7) from the analyte stock solutions, working solutions were diluted before passing on to the sensor surface. Data collection was done with the help of Biacore control software ver 2.0.2 Sets of experiments were carried out by monitoring change in the refractive index as a function of time under constant flow conditions. The relative amount of inhibitor bound to the AChE was determined by measuring the net increase in the refractive index over time compared to buffer as a control. During each run, there is an inline subtraction of the reference surface. Change is reported regarding response units (RU). The surface was washed with 5 cycles of running buffer (PBS) before next analytes.
# (§2) As per pH scouting studies, AChE enzyme (100μg) was dissolved in 100 mM sodium acetate buffer pH 4.5 and was immobilized to the CM5 sensor chip by using the amine coupling method. The flow rate was kept constant during immobilization at 10 μlmin^-1, the surface of flow cell was activated by 1:1 mixture of 100 mM EDC and 100 mM NHS (both dissolved in water) for 7 min. AChE was injected for 7 min, and residual activated carboxymethyl groups were blocked on the sensor surface by 7 min injection of 1M ethanolamine, pH 8.5. In this particular study, flow cell 1 was blank immobilized (without protein) and used as a reference. Inline and double referencing was done for the buffer RU compensation.
# (§3) Here the model describes this competitive situation and returns two sets of rate constants, one for each reaction taking into consideration two different analytes. The same buffer was used as running buffer. The constant flow rate was maintained throughout the kinetics (45 μlmin^-1), contact time and dissociation time was kept at 120 second (s). 10 mM glycine pH 3.0 for the time period of 30 s was used for regeneration. The experiments were carried at different concentrations of inhibitors.
# (§4) The analysis of data was carried out with X100 evaluation software ver 2.0.2 and fitted to two state fit for individual molecules and for competitive experiments a heterogeneous analyte binding model.
# [2] = target: T1, immobilized AChE; experiment: biochemical; assay type: binding
# Procedure: as §1, §2, §3, §4
# Likewise, competitive experiments between different pairs was run by mixing 1:1 ratio of molecules and was fit to heterogeneous analyte model were studied. These experiments are helpful for determining the kinetics of a small molecule analyte in competition with other. Response contributions from both analytes are taken into account by considering molecular weight and concentrations of analytes. For competition binding experiments, pairing was done based on substrate-inhibitor and inhibitor-inhibitor interactions. […] Finally, naturally occurring crocin was also tested due to reports in the literature as a brain tonic for the Alzheimer's.
# [3] = target: T2, AChE (Electrophorus electricus, UniProt O42275); experiment: Far-UV circular dichroism of AChE with small molecules (secondary structure composition); conditions: for change in secondary structure of AChE compared to control enzyme: CD, far-UV; for Turns of AChE in presence of the molecule / α helix of AChE in presence of the molecule / Random of AChE in presence of the molecule / β sheets of AChE in presence of the molecule: single molecule; for Turns of AChE in presence of the molecule: AChE alone 0; for α helix of AChE in presence of the molecule: AChE alone 3.6±0.012; for Random of AChE in presence of the molecule: AChE alone 44.2±0.46; for β sheets of AChE in presence of the molecule: AChE alone 52.3±0.6
# T2 construct: purchased Sigma (St. Louis, MO, USA)
# T2 sequence (O42275 24-633): as above
# Procedure: Protein solutions 0.5 milligram per milliliter (mgml^-1) was prepared in 10 mM PBS at pH 7.7. Scans were performed at room temperature using 0.1 cm path length quartz cuvette with 8 s differential integration time at a scan rate of 100 nano meter per minute (nm min^-1). The CD spectrum of AChE enzyme individually and with different small molecules, also in combination was recorded. All spectra resulted from averaging three scans were corrected from the buffer blank. Results were expressed as molar ellipticity (°cm^2 dmol^-1) based on a mean amino acid residue weight (MRW) 110 Da for AChE. The molar ellipticity was determined as [θ obs] = {100 × (MRW) × θobs/cl}, where θ is the observed ellipticity in degrees at a given wavelength, c is the protein concentration in mgml^-1, and l is the path length in cm.
# The relative percentages of the secondary structure elements were estimated in triplicates using Manager Suite software.
# [4] = target: T2, AChE; experiment: Fluorescence spectral studies of AChE incubated with molecules; conditions: excitation 365 nm, control emission maxima […] nm, molecules at IC50 concentration, 10 min
# Procedure: The fluorescence intensities were recorded using 0.5 mgml^-1 protein concentration with an excitation wavelength of 365 nm and an emission wavelength of 400–700 nm with slit widths of 20 nm using MY14410002 fluorescence spectrophotometer (Agilent Technologies, USA) at 25°C. Protein solutions of 0.5 mgml^-1 were prepared in 10 mM PBS at pH 7.7. Scans were performed at room temperature using a 1 cm path length quartz cuvette with 1 s differential integration time at a scan rate of 600 nm min^-1. […] The subsequent changes in fluorescence were measured at this wavelength.
# Fig 21 a) Intrinsic fluorescence spectra of the AChE incubated with molecules. […] Scans were performed at 37°C using a 1 cm path length quartz cuvette with 1 s differential integration time at a scan rate of 600 nm min^-1. The excitation wavelength was 365 nm and emission wavelength was in the range of 400–700 nm. b) Intrinsic fluorescence spectra of the AChE incubated with molecules. […] Scans were performed at 37° C using a 1 cm path length quartz cuvette with 1 s differential integration time at a scan rate of 600 nm min^-1. The excitation wavelength was 365 nm and the emission wavelength was in the range of 400–700 nm.
# [5] = target: T3, acetylcholinesterase from Electrophorus electricus (Electric eel) (Electrophorus electricus, UniProt O42275); experiment: Inhibition assay for acetylcholinesterase activity (modified Ellman, ATCI/DTNB, 412 nm); assay type: biochemical
# T3 construct: purchased Sigma (St. Louis, MO, USA)
# T3 sequence (O42275 24-633): as above
# Procedure: The assay was performed with some modifications of Ellman et al (1961). […] The hydrolysis was monitored by the formation of yellow color (5-thio-2-nitrobenzoate anion) and the absorbance was measured at 412 nm by using spectrophotometer (UV-1800, Shimadzu, Japan).
# The inhibitory activity assay was carried out with slight modifications. […] The inhibitory percentage of AChE was calculated as follows:
# %inhibition = 100[A − B] − [C − D]/[A − B]
# A is the OD without test substance, B is the OD without test substance and AChE, C is the OD with the test substance, D is the OD at 412 nm with the test substance and without AChE.
# The relative percentage inhibition were estimated in triplicates and values were expressed as mean ± SEM (n = 3).
# [6] = test system: AChE; conditions: cited from earlier work
# [7] = affinity fit, read-out: KD Affinity
# [8] = two-state model, read-out: KD Kinetics
# [9] = pair crocin (molecule 1) and ATCI (molecule 2), 1:1
SMILES,Ka2 [1],"Kd [1, 7]",Ka1 ([1]; two-state model),Kd1 ([1]; two-state model),"Kd [1, 8]",change in secondary structure of AChE compared to control enzyme [3],Turns of AChE in presence of the molecule [3],α helix of AChE in presence of the molecule [3],Random of AChE in presence of the molecule [3],β sheets of AChE in presence of the molecule [3],change in fluorescence emission of AChE compared to control enzyme [4],IC50 [5],Kd2 [1],further results
"CC(=O)SCC[N+](C)(C)C.[I-] [ATCI, acetylthiocholine iodide, reference compound]",12440 ± 9.6e-05 s⁻¹,2510 µM,76590 ± 12000 M⁻¹ s⁻¹,0.4167 ± 0.13 s⁻¹,2.23 µM,increase in α-helix and a decline in β-sheets,0%,5.9±0.035%,42.8±0.39%,51.3±0.70%,no change,–,–,"Molecule 2 ka2 [2]: 92910 ± 43000 M⁻¹ s⁻¹; Molecule 2 ka2 [2, 9]: 139500 ± 19000 M⁻¹ s⁻¹; Molecule 2 kd2 [2, 9]: 0.06452 ± 0.0034 s⁻¹; Molecule 2 ka2 ([2]; pair tannic acid (molecule 1) and ATCI (molecule 2), 1:1): 1.529e+06 ± 3.4e+06 M⁻¹ s⁻¹; Kd ([2]; pair tannic acid (molecule 1) and ATCI (molecule 2), 1:1, read-out: Molecule 2 KD): 0.00016 µM; Kd ([2]; read-out: Molecule 2 KD): 0.00989 µM"
"Cn1c(=O)c2c(ncn2C)n(C)c1=O [Caffeine, caffeine, reference compound]",–,–,–,–,–,–,–,–,–,–,–,380 ± 15 µM,–,"Kd ([1]; KD Affinity, affinity fit): 7700 µM; Kd ([1]; KD Kinetics, two-state model): 17.4 µM"
"C[N+](C)(C)CCOC(N)=O [Carbachol, carbachol, reference compound]",0.001509±2.6×10^−4 1/s,1150 µM,101000 ± 9700 M⁻¹ s⁻¹,0.05155 ± 0.0041 s⁻¹,0.236 µM,increase in α-helix and a decline in β-sheets,2.6±0.016%,4.0±0.02%,42.4±0.38%,51.0±0.69%,no change,210 ± 15 µM,0.001298±1.1×10^−4 1/s,–
"O.Oc1cc(O)c2c(c1)O[C@H](c1ccc(O)c(O)c1)[C@@H](O)C2 [Catechin hydrate, catechin hydrate]",0.0158±7.1×10^−4 1/s,738 µM,76.33 ± 3.4 M⁻¹ s⁻¹,0.06336 ± 0.0042 s⁻¹,173 µM,–,0%,10±0.06%,41±0.29%,49±0.67%,redshift,–,0.004173±1.1×10^−4 1/s,"IC50 ([5]; […] ATCI, PBS 200 mM pH 7.7, 37°C, mean ± SEM (n = 3), read-out: IC50): 90 ± 1 µM"
"CC(/C=C/C=C(\C)C(=O)O[C@@H]1O[C@H](CO[C@@H]2O[C@H](CO)[C@@H](O)[C@H](O)[C@H]2O)[C@@H](O)[C@H](O)[C@H]1O)=C\C=C\C=C(C)\C=C\C=C(/C)C(=O)O[C@@H]1O[C@H](CO[C@@H]2O[C@H](CO)[C@@H](O)[C@H](O)[C@H]2O)[C@@H](O)[C@H](O)[C@H]1O [Crocin, crocin]",0.003559±9.4×10^−5 1/s,475 µM,601700 ± 6700 M⁻¹ s⁻¹,472 ± 5.2 s⁻¹,470 µM,–,0%,5.7±0.042%,43.8±0.41%,50.5±0.74%,redshift,920 ± 230 µM,0.005325±1.5×10^−4 1/s,"Kd [2]: 6020 µM; Molecule 2 ka2 [2]: 1.010 ± 0.11 M⁻¹ s⁻¹; Molecule 2 kd2 [2]: 0.006083±1.1×10^−4 1/s; Molecule 1 ka1 [2, 9]: 3281±5.8×10^2 1/Ms; Molecule 1 kd1 [2, 9]: 0.01684±8.5×10^−4 1/s"
"O[C@H]1[C@H]2c3cc4c(cc3CN3CCC(=C[C@@H]1O)[C@H]23)OCO4 [Lycorine hydrochloride, lycorine hydrochloride]",–,–,131.5 ± 6.3 M⁻¹ s⁻¹,0.3564 ± 0.011 s⁻¹,–,increase of α-helix,0%,7.2±0.045%,41.6±0.34%,51.2±0.72%,increase in the intensity at 415 nm,–,0.02658 ± 0.0061 s⁻¹,–
"O=c1c(O)c(-c2ccc(O)c(O)c2)oc2cc(O)cc(O)c12 [Quercetin, quercetin]",0.006822±3.4×10^−4 1/s,–,117.6 ± 4.3 M⁻¹ s⁻¹,0.05923 ± 0.0028 s⁻¹,–,reduction in α-helix with an increase in β-sheets,1.0±0.006%,3.1±0.010%,42.8±0.39%,53.2±0.75%,redshift,–,0.004964±2.1×10^−4 1/s,–
"C[C@@H]1O[C@@H](OC[C@H]2O[C@@H](Oc3c(-c4ccc(O)c(O)c4)oc4cc(O)cc(O)c4c3=O)[C@H](O)[C@@H](O)[C@@H]2O)[C@H](O)[C@H](O)[C@H]1O [Rutin hydrate, rutin hydrate]",0.004468±1.6×10^−4 1/s,1110 µM,11.33 ± 0.25 M⁻¹ s⁻¹,0.04254 ± 0.0013 s⁻¹,1180 µM,–,0%,8.8±0.056%,40.7±0.27%,50.5±0.72%,redshift,1900 ± 90 µM,0.002058±1.6×10^−4 1/s,–
O.Oc1cc(O)c2c(c1)O[C@H](c1ccc(O)c(O)c1)[C@@H](O)C2 [catechin],–,–,–,–,–,–,–,–,–,–,–,–,–,"IC50 ([6]; Catechin isolated from Dasiphora fruticosa, read-out: IC50): 1040 µM; IC50 ([6]; catechin isolated from Eugenia dysenterica): 42.39 µg/mL"
